Series [1] concerns subcutaneous tumor model mice (B×PC3). The series can be described thus: Antitumor effect on tumor-bearing mice. The series is classed as in vivo. To be noted: 1.5 mg/kg intraperitoneally. The protocol:
A Val-encapsulating polymeric micelle solution prepared by using PEG-P(Asp-BH) (administration amount of Val: 1.5 mg/kg), a valinomycin solution (1.5 mg/kg), or a gemcitabine solution (80 mg/kg) was intravenously administered (only the valinomycin solution was intraperitoneally administered) to the tail vein of subcutaneous tumor model mice (B×PC3) on day 0, day 2, and day 4, and the sizes of the tumors and the body weights of the mice after lapses of various times were measured (n=4).

For series [2], the system named is PANC-1. The series can be described thus: Toxicity test against cultured cells (CCK-8). The format is cell-based. To be noted: Homo sapiens, 48 hours, Val concentration, cell survival by CCK-8. The protocol:
(§1) Human pancreatic adenocarcinoma cells (B×PC3 cells, Panc-cells, or MiaPaCa cells) were seeded into a 96-well plate (5,000 cells/well). After 24 hours, a Val-encapsulating polymeric micelle solution prepared by adding 0.3 equivalent of Val to PEG-P(Asp-BH) or Val alone was added at various Val concentrations. After 48 hours, the cells were washed with PBS, and a medium was added. After that, Cell Counting Kit-8 (CCK-8, 10 μL/well) was added to the medium, and 30 minutes later, UV absorbance at 450 nm was measured.

In series [3] the test system is BxPC3. The series can be described thus: Toxicity test against cultured cells (CCK-8). The series is classed as cell-based. The following applies: Homo sapiens, BXPC-3, 48 hours, Val concentration, cell survival by CCK-8. The protocol: as §1
Series [4] deals with MiaPaCa. The series can be described thus: Toxicity test against cultured cells (CCK-8). The format is cell-based. To be noted: Homo sapiens, MIA PaCa-2, 48 hours, Val concentration, cell survival by CCK-8. The protocol:
as §1

For orientation: IC50 means the concentration at which inhibition is half-maximal. Lower therefore signals higher potency. `CC(C)[C@@H]1NC(=O)[C@H](C)OC(=O)[C@@H](C(C)C)NC(=O)[C@@H](C(C)C)OC(=O)[C@H](C(C)C)NC(=O)[C@H](C)OC(=O)[C@@H](C(C)C)NC(=O)[C@@H](C(C)C)OC(=O)[C@H](C(C)C)NC(=O)[C@H](C)OC(=O)[C@@H](C(C)C)NC(=O)[C@@H](C(C)C)OC1=O` [Val, valinomycin]: the “death of all the mice, time after the initial administration” value in series [1] is at most 24 h. Besides, the concentration for half-maximal inhibition (IC50) in series [2] turned out to be 8.3 nM; in series [3], 12.5 nM; in series [4] it was 23.2 nM.

The record behind these values is patent US12714754B2, “Delivery of cyclic compound by using carrier” (priority 2018, dated 2026).
